Data taken from patent publication US6777445B2, “Fullerene pharmaceutical compositions for preventing or treating disorders” (priority 2000, dated 2004).

Tested on: E. coli
Assay: E. coli-induced meningitis death, C60(C3) given immediately before E. coli (Test 1)
Assay type: in vivo, B6 mice
Settings: 6 mg/kg i.p. C60(C3), again at 24 and 48 hours
Description: E. coli ATCC 10536 was cultured in Luria-Bertain (LB) broth (1% NaCl, 1% tryptone, 0.5% yeast extract) for 12 hours and was subcultured in fresh medium for another 3 h. The concentration of E. coli was determined with a spectrophotometer (Beckman Instrument, Somerset, N.J.), with an optical density at 600 nm of 1 equal to […] (Wang, S. D., et al., J. Immunol. 152:5014-5021). For the induction of meningitis, groups of three to four mice were given intracerebral injections directly into the temporal area of a volume of 5×10^5 E. coli cells diluted in saline. The 100% lethal dose (LD100) by intracerebral injection in B6 mice is 5×10^5 E. coli cells. The animals were observed every 12 hours for a total of 6 days. In some experiments, the brains were aseptically removed and were homogenized with 3% gelatin (Difco Laboratories, Detroit, Mich.) in PBS. The samples were serial diluted, poured in agar plates, and incubated at 37° C. overnight. The number of colony forming units (CFU) of E. coli was quantitated and was expressed as the mean±standard deviation per mouse. […] The growth curve of E. coli was determined in LB broth to evaluate the direct antimicrobial activity of C60(C3).
Groups of 10 B6 mice were inoculated intracerebrally with 5×10^5 E. coli per mouse. […] The mice were monitored for death every 12 hours for 6 days.

With `C[C@@H]1C[C@H]2[C@@H]3CCC4=CC(=O)C=C[C@]4(C)[C@@]3(F)[C@@H](O)C[C@]2(C)[C@@]1(O)C(=O)CO` [dexamethasone] the “mice protected from E. coli-induced death” value was 20%.
